# Experimental data as given in patent US6894046B2, “IL-5 inhibiting 6-azauracil derivatives” (Janssen Pharmaceutica N.V., priority 1998, dated 2005).
# Structures can show the parent of a compound that is named as a salt.
# Test system: IL-5 production in human blood
# Assay: In vitro inhibition of IL-5 production in human blood (phytohemagglutinin-stimulated whole blood, ELISA)
# Format: cell-based
# Conditions: test dose 1×10^−6 M, phytohemagglutinin 2 μg/ml, 48 hours
# Protocol: EXAMPLE C.1: IN VITRO INHIBITION OF IL-5 PRODUCTION IN HUMAN BLOOD
# Peripheral blood from healthy male donors was drawn into heparinized syringes (12.5 U heparin/ml). Blood samples were three-fold diluted in RMPI 1640 medium (Life Technologies, Belgium) supplemented with 2 mM L-glutamine, 100 U/ml penicillin and 100 μg/ml streptomycin, and 300 μl fractions were distributed in 24-well multidisc plates. Blood samples were preincubated (60 minutes at 37° C.) in a humidified 6% CO2-atmosphere with 100 μl of drug solvent (final concentration 0.02% dimethylsulfoxide in RPMI 1640) or with 100 μl of an appropriate dose of test compound before being stimulated by the addition of 100 μl of phytohemagglutinin HA17 (Murex, UK) at a final concentration of 2 μg/ml. After 48 hours, cell-free supernatant fluids were collected by centrifugation and stored at −70° C. until tested for the presence of IL-5.
# IL-5 measurements were conducted as described in Van Wauwe et al. (1996, Inflamm Res, 45, 357-363) on page 358 using ELISA.
# Table 6 lists the percentage inhibition of IL-5 production (column “% inh”) at a test dose of 1×10^−6 M, or in case the percentage inhibition is marked with an “*” 1×10^−5 M, for the compounds of the present invention.
row,Molecule,% inh. (percentage inhibition of IL-5 production)
1,"(α+β)-2-[3,5-dichloro-4-[1-[5-[3-[[tetrahydro-3,4,5-trihydroxy-6-hydroxymethyl)-2H-pyran-2H-pyran-2-yl]amino]phenyl]-4-phenyl-2-thiazolyl]-1-methylethyl]phenyl]-1,2,4-triazine-3,5(2H,4H)-dione 2-propanolate(1:1) [Compound 64]",86%
2,CN1CCN(Cc2ccc(-c3csc(C(C)(C)c4c(Cl)cc(-n5ncc(=O)[nH]c5=O)cc4Cl)n3)s2)CC1 [Compound 112],39%
3,CC(C)(C)OC(=O)c1sc(C(C)(C)c2c(Cl)cc(-n3ncc(=O)[nH]c3=O)cc2Cl)nc1-c1cccs1 [Compound 119],93%
4,CC(C)(c1nc(-c2ccccc2)c(CC(=O)N2CCOCC2)s1)c1c(Cl)cc(-n2ncc(=O)[nH]c2=O)cc1Cl [Compound 20],80%
5,COc1cccc(-c2sc(C(C)(C)c3c(Cl)cc(-n4ncc(=O)[nH]c4=O)cc3Cl)nc2-c2ccccc2)c1 [Compound 55],92%
6,Cc1ccc(-c2csc(C(C)(C)c3c(Cl)cc(-n4ncc(=O)[nH]c4=O)cc3Cl)n2)s1 [Compound 76],75%
7,CC(C)(c1nc(-c2ccccc2)c(N2CCOCC2)s1)c1c(Cl)cc(-n2ncc(=O)[nH]c2=O)cc1Cl [Compound 14],78%
8,CCOC(=O)c1sc(C(C)(C)c2c(Cl)cc(-n3ncc(=O)[nH]c3=O)cc2Cl)nc1-c1ccccc1 [Compound 6],94%
9,CCOC(=O)Cc1sc(C(C)(C)c2c(Cl)cc(-n3ncc(=O)[nH]c3=O)cc2Cl)nc1-c1cccs1 [Compound 118],78%
10,CN1CCN(Cc2ccsc2-c2csc(C(C)(C)c3c(Cl)cc(-n4ncc(=O)[nH]c4=O)cc3Cl)n2)CC1.O [Compound 113],28%
11,CC(C)(c1nc(-c2ccccc2)c(C(=O)O)s1)c1c(Cl)cc(-n2ncc(=O)[nH]c2=O)cc1Cl [Compound 117],−7%
12,Cc1cccc(-c2nc(C(C)(C)c3c(Cl)cc(-n4ncc(=O)[nH]c4=O)cc3Cl)no2)c1 [Compound 91],81%
13,COC(=O)c1ccc(-c2nc(C(C)(C)c3c(Cl)cc(-n4ncc(=O)[nH]c4=O)cc3Cl)no2)cc1 [Compound 135],11%
14,CC(C)(c1noc(-c2ccc(F)cc2)n1)c1c(Cl)cc(-n2ncc(=O)[nH]c2=O)cc1Cl [Compound 96],82%
15,COCc1sc(C(C)(C)c2c(Cl)cc(-n3ncc(=O)[nH]c3=O)cc2Cl)nc1-c1ccccc1 [Compound 30],93%
16,"2-[3,5-dichloro-4-(2-pyridinyl-methyl)phenyl]-1,2,4-triazine-3,5(2H,4H)-dione hydrochloride(:1); hydrate(1:1) [Compound 107]",14%
17,CC(C)(c1noc(-c2cccc(CO)c2)n1)c1c(Cl)cc(-n2ncc(=O)[nH]c2=O)cc1Cl [Compound 127],67%
18,CC(C)(c1nc(-c2cccc(Cl)c2)cs1)c1c(Cl)cc(-n2ncc(=O)[nH]c2=O)cc1Cl [Compound 8],85%
19,CC(C)(c1nc(-c2csc3ccccc23)cs1)c1c(Cl)cc(-n2ncc(=O)[nH]c2=O)cc1Cl [Compound 79],75%

row,Molecule,% inh. (percentage inhibition of IL-5 production)
1,CC(C)(c1nc(-c2c(F)cccc2F)cs1)c1c(Cl)cc(-n2ncc(=O)[nH]c2=O)cc1Cl [Compound 13],75%
2,COCCNCc1cccc(-c2sc(C(C)(C)c3c(Cl)cc(-n4ncc(=O)[nH]c4=O)cc3Cl)nc2-c2ccccc2Cl)c1.Cl [Compound 69],45%
3,COCc1cccc(-c2nc(C(C)(C)c3c(Cl)cc(-n4ncc(=O)[nH]c4=O)cc3Cl)sc2C)c1 [Compound 44],81%
4,CC(C)OC(=O)c1cccc(-c2sc(C(C)(C)c3c(Cl)cc(-n4ncc(=O)[nH]c4=O)cc3Cl)nc2-c2ccccc2Cl)c1 [Compound 65],36%
5,CC(C)(c1noc(C2CCNCC2)n1)c1c(Cl)cc(-n2ncc(=O)[nH]c2=O)cc1Cl.Cl [Compound 152],21%
6,Cc1ccc(-c2nc(C(C)(C)c3c(Cl)cc(-n4ncc(=O)[nH]c4=O)cc3Cl)no2)cc1 [Compound 125],43%
7,Cc1ccccc1-c1csc(C(C)(C)c2c(Cl)cc(-n3ncc(=O)[nH]c3=O)cc2Cl)n1 [Compound 40],89%
8,Cc1sc(C(C)(C)c2c(Cl)cc(-n3ncc(=O)[nH]c3=O)cc2Cl)nc1-c1ccccc1 [Compound 10],85%
9,"1′-[[2-[1-[2,6-dichloro-4-(4,5-dihydro-3,5-dioxo-1,2,4-triazin-2(3H)-yl)phenyl]-1-methylethyl-4-phenyl-5-thiazolyl]acetyl]-(1,4′-dipiperidine) [Compound 24]",32%
10,CC(C)(c1nc(-c2ccc(Br)s2)cs1)c1c(Cl)cc(-n2ncc(=O)[nH]c2=O)cc1Cl [Compound 77],84%
11,Cc1ccnc(C)c1-c1nc(C(C)(C)c2c(Cl)cc(-n3ncc(=O)[nH]c3=O)cc2Cl)no1.ClCCl [Compound 151],74%
12,CC(C)(c1noc(-c2cccc(F)c2)n1)c1c(Cl)cc(-n2ncc(=O)[nH]c2=O)cc1Cl [Compound 90],91%
13,CC(C)(c1noc(-c2ccccc2CC(=O)O)n1)c1c(Cl)cc(-n2ncc(=O)[nH]c2=O)cc1Cl [Compound 158],3%
14,COc1ccccc1-c1csc(C(C)(C)c2c(Cl)cc(-n3ncc(=O)[nH]c3=O)cc2Cl)n1 [Compound 26],84%
15,"3-[2-[1-[2,6-dichloro-4-(4,5-dihydro-3,5-dioxo-1,2,4-triazin-2(3H)-yl)phenyl]-1-methylethyl-4-(2-chlorophenyl)-5-thiazolyl]-N-(2-methoxyethyl)-benzamide [Compound 63]",38%
16,CC(C)(c1nc(-c2ccccc2Cl)c(-c2cccc(C#N)c2)s1)c1c(Cl)cc(-n2ncc(=O)[nH]c2=O)cc1Cl [Compound 57],85%
17,CC(C)(c1noc(-c2ccccc2C(F)(F)F)n1)c1c(Cl)cc(-n2ncc(=O)[nH]c2=O)cc1Cl [Compound 153],77%
18,CC(C)(c1nc(-c2ccccc2Cl)c(-c2cccc(C(=O)O)c2)s1)c1c(Cl)cc(-n2ncc(=O)[nH]c2=O)cc1Cl [Compound 56],−4%

# Same assay, conditions: test dose 1×10^−6 M, phytohemagglutinin 2 μg/ml, 48 hours, read-out: % inh. (percentage inhibition of IL-5 production)
row,Molecule,inhibition at 1 µM
1,"CN1CCN(Cc2ccccc2-c2nc(C(C)(C)c3c(Cl)cc(-n4ncc(=O)[nH]c4=O)cc3Cl)no2)CC1 [Compound 94, 2-[3,5-dichloro-4-[1-methyl-1-[5-[2-[(4-methyl-1-piperazinyl)methyl]phenyl]-1,2,4-oxadiazol-3-yl]ethyl]phenyl]-1,2,4-triazine-3,5(2H,4H)-dione trihydrochloride]",34%
2,"CC(C)(c1nc(-c2ccc(N(S(C)(=O)=O)S(C)(=O)=O)s2)cs1)c1c(Cl)cc(-n2ncc(=O)[nH]c2=O)cc1Cl [Compound 81, N-[5-[2-[1-[2,6-dichloro-4-(4,5-dihydro-3,5-dioxo-1,2,4-triazine-2(3H)-yl)phenyl]-1-methylethyl]-4-thiazolyl]-2-thienyl]-N-(methylsulfonyl)methanesulfonamide]",34%
3,"CC(C)(c1noc(-c2ccccc2)n1)c1c(Cl)cc(-n2ncc(=O)[nH]c2=O)cc1Cl [Compound 88, 2-[3,5-dichloro-4-[1-methyl-1-(5-phenyl-1,2,4-oxadiazol-3-yl)ethyl]phenyl]-1,2,4-triazine-3,5(2H,4H)-dione]",94%
4,"CC(C)(c1nc(-c2ccccc2)c(-c2cccnc2)s1)c1c(Cl)cc(-n2ncc(=O)[nH]c2=O)cc1Cl [Compound 33, 2-[3,5-dichloro-4-[1-methyl-1-[4-phenyl-5-(3-pyridinyl)-2-thiazolyl]ethyl]phenyl]-1,2,4-triazine-3,5(2H,4H)-dione]",90%
5,"CC(C)(c1nc(-c2ccccc2)c(-c2ccccc2)s1)c1c(Cl)cc(-n2ncc(=O)[nH]c2=O)cc1Cl [Compound 23, 2-[3,5-dichloro-4-[1-(4,5-diphenyl-2-thiazolyl)-1-methylethyl]phenyl]-1,2,4-triazine-3,5(2H,4H)-dione]",91%
6,"CC(C)(c1nc(-c2ccccc2)c(-c2cccc(NC(=O)N3CCNCC3)c2)s1)c1c(Cl)cc(-n2ncc(=O)[nH]c2=O)cc1Cl [Compound 71, N-[3-[2-[1-[2,6-dichloro-4-(4,5-dihydro-3,5-dioxo-1,2,4-triazin-2(3H)-yl)phenyl]-1-methylethyl]-4-phenyl-5-thiazolyl]-phenyl]-1-piperazinecarboxamide monohydrate]",27%
7,"CC(C)(c1nc(-c2ccco2)cs1)c1c(Cl)cc(-n2ncc(=O)[nH]c2=O)cc1Cl [Compound 83, 2-[3,5-dichloro-4-[1-[4-(2-furanyl)-2-thiazolyl]-1-methylethyl]phenyl]-1,2,4-triazine-3,5(2H,4H)-dione]",78%
